Data on two compounds can be found in ChEMBL document CHEMBL5331074, “Design and synthesis of new adamantyl derivatives as promising antiproliferative agents” (Eur J Med Chem, 2023).

Data set [1] concerns CCRF-CEM. The data set can be described thus: Cytotoxicity against human CCRF-CEM cells assessed as cell growth inhibition. In kind it is functional, cell-based.
Data set [2] relates to MOLT-4. The data set can be described thus: Cytotoxicity against human MOLT-4 cells assessed as cell growth inhibition. In kind it is functional, cell-based.
Data set [3] has as its system HCC 2998. The data set can be described thus: Cytotoxicity against human HCC 2998 cells assessed as cell growth inhibition. In kind it is functional, cell-based.
Data set [4] relates to OVCAR-3. The data set can be described thus: Cytotoxicity against human OVCAR-3 cells assessed as cell growth inhibition. In kind it is functional, cell-based.
A short description of data set [5]: Selectivity index, ratio of IC50 for cytotoxicity against human hTERT-HME1 cells to IC50 for cytotoxicity against human MCF7 cells. In kind it is toxicity, cell-based. Particulars: hTERT-HME1 cells and MCF7 cells, read-out: Ratio IC50.
Data set [6] can be described thus: Selectivity index, ratio of IC50 for cytotoxicity against human F180 cells to IC50 for cytotoxicity against human UACC-62 cells.
The nature of data set [7]: Selectivity index, ratio of IC50 for cytotoxicity against human F180 cells to IC50 for cytotoxicity against human SK-MEL-28 cells.
Data set [8] relates to K562. Nature of the data set: Induction of apoptosis in human K562 cells assessed as fold increase in caspase 3/7 activity at 0.58 uM (reference value: 1.03 +/- 0.02). In kind it is functional.
Data set [9] deals with K562. The data set can be described thus: Induction of apoptosis in human K562 cells assessed as fold increase in caspase 3/7 activity at 1.16 uM (reference value: 1.03 +/- 0.02). In kind it is functional.
In data set [10] the test system is K562. Nature of the data set: Induction of necrosis in human K562 cells assessed as LDH release at 0.58 uM (reference value: 0.20+/- 0.02%). In kind it is functional. (Release of lactate dehydrogenase indicates damage to the cell membrane.)
Data set [11] concerns K562. The data set can be described thus: Induction of necrosis in human K562 cells assessed as LDH release at 1.16 uM (reference value: 0.20+/- 0.02%). In kind it is functional.
Data set [12] concerns the target T1, Carbonic anhydrase 2 (Homo sapiens, UniProt P00918). Nature of the data set: Inhibition of Carbonic anhydrase 2 (unknown origin) at 100 uM using p-nitrophenyl acetate as substrate preincubated for 10 mins followed by substrate addition and measured after 30 mins by microplate reader method relative to control. Particulars: time 40.0 min.
For data set [13], the target named is T2, Carbonic anhydrase 12 (Homo sapiens, UniProt O43570). Nature of the data set: Inhibition of Carbonic anhydrase 12 (unknown origin) using p-nitrophenyl acetate as substrate preincubated for 10 mins followed by substrate addition and measured after 30 mins by microplate reader method.
In data set [14] the test system is Panel NCI-60 (60 carcinoma cell lines). Nature of the data set: Cytotoxicity against human Panel NCI-60 (60 carcinoma cell lines) assessed as mean growth inhibition. In kind it is functional.
The subject of data set [15] is CAKI-1. The data set can be described thus: Cytotoxicity against human CAKI-1 cells assessed as cell growth inhibition. In kind it is functional, cell-based.
A short description of data set [16]: Selectivity index, ratio of IC50 for cytotoxicity against human hTERT-HME1 cells to IC50 for cytotoxicity against human Hs-578T cells.
A short description of data set [17]: Selectivity index, ratio of IC50 for cytotoxicity against human F180 cells to IC50 for cytotoxicity against human SK-MEL-5 cells.
The nature of data set [18]: Selectivity index, ratio of IC50 for cytotoxicity against human F180 cells to IC50 for cytotoxicity against human UACC-257 cells.
Data set [19] concerns K562. The data set can be described thus: Induction of apoptosis in human K562 cells assessed as fold increase in caspase 3/7 activity at 0.32 uM (reference value: 1.03 +/- 0.02). In kind it is functional.
The subject of data set [20] is K562. The data set can be described thus: Induction of apoptosis in human K562 cells assessed as fold increase in caspase 3/7 activity at 0.64 uM (reference value: 1.03 +/- 0.02). In kind it is functional.
The subject of data set [21] is K562. The data set can be described thus: Induction of necrosis in human K562 cells assessed as LDH release at 0.32 uM (reference value: 0.20+/- 0.02%). In kind it is functional.
Data set [22] deals with K562. The data set can be described thus: Induction of necrosis in human K562 cells assessed as LDH release at 0.64 uM (reference value: 0.20+/- 0.02%). In kind it is functional.
Data set [23] concerns the target T1, Carbonic anhydrase 2. The data set can be described thus: Inhibition of Carbonic anhydrase 2 (unknown origin) using p-nitrophenyl acetate as substrate preincubated for 10 mins followed by substrate addition and measured after 30 mins by microplate reader method.
The target in data set [24] is T2, Carbonic anhydrase 12. The data set can be described thus: Inhibition of Carbonic anhydrase 12 (unknown origin) at 100 uM using p-nitrophenyl acetate as substrate preincubated for 10 mins followed by substrate addition and measured after 30 mins by microplate reader method relative to control. Particulars: time 40.0 min.

Usually IC50 stands for the concentration at which inhibition is half-maximal. As a reminder, the inhibition is the percentage by which the read-out fell short of the control. Read a low inhibition as little suppression.

T2 sequence (O43570 whole entry): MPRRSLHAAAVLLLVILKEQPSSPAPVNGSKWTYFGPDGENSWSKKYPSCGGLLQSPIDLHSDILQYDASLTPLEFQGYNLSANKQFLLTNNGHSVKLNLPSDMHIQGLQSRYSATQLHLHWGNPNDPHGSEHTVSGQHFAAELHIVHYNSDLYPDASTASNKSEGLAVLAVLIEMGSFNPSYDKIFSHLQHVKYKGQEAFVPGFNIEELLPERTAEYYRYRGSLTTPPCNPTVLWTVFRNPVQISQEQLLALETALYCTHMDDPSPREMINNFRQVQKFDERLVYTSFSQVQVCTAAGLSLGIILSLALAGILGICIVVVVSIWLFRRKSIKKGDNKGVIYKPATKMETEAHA

Take `O=C(Nc1ccc(OS(=O)(=O)c2ccc(F)cc2)cc1)C12CC3CC(CC(C3)C1)C2`: the IC50 in [1] is 3.73 µM; in data set [2], 5.05 µM; in data set [3] it was 7.95 µM; in [4] it was 6.05 µM; in [13], 0.68 µM. Further, the selectivity ratio in [5] turned out to be 84.7. Besides, the “Ratio IC50” value in data set [6] was determined as 15.9; in [7], 1.7. In addition, the “fold change (FC)” value in data set [8] was 1.89; in data set [9], 2.72. Moreover, the Activity stood at 1.8% in data set [10] and 3.4% in [11]. Further, the inhibition in data set [12] amounted to 39.6%.

With `O=C(Nc1ccc(OS(=O)(=O)c2ccccc2)cc1)C12CC3CC(CC(C3)C1)C2`, the “inhibition (INH)” value in data set [14] came to 44.5%. The IC50 in [3] came out at 5.48 µM; in [15] it was 7.08 µM; in data set [23] it was 0.88 µM. The results for the “Ratio IC50” value in data set [16], in [17] and in data set [18] were 6.8, 3.12 and 3.7, respectively. For the same compound, the figures for the “fold change (FC)” value in [19] and in data set [20] were 2.05 and 3.7, respectively. Also, the Activity in [21] is given as 0.5%; in [22], 2.3%. Moreover, the inhibition in [24] came to 18.1%.
